# Measurements reported in US5245051A, “Antipsychotic chroman derivatives of benzodioxanmethylamine” (American Home Products Corporation, priority 1992, dated 1993).
# Tests used:
# 5-HT1A receptor = details: (-)-isomer versus dextrorotary isomer; cited from earlier work
# dopamine D2 receptor = biological target: T1, dopamine D2 receptor (Rattus norvegicus, UniProt P61169); experiment: Affinity for dopamine D2 receptor (3H-quinpirole, homogenized rat striatal brain tissue); type: binding
# T1 construct: homogenized rat striatal brain tissue; from tissue; host or cells: rat striatal brain tissue homogenate
# Experimental: Affinity for the dopamine D2 receptor was established by a modification of the standard experimental test procedure of Seemen and Schaus, European Journal of Pharmacology 203: 105-109, 1991, wherein homogenized rat striatal brain tissue is incubated with ^3 H-quinpirole and various concentrations of test compound, filtered and washed and counted in a Betaplate scintillation counter.
# dopa accumulation = experiment: Inhibition of dopa accumulation in GBL-treated rats (effect on dopamine synthesis, Walters and Roth); type: in vivo, rat (male, Sprague-Dawley); details: sc, limbic (L) brain tissue, rat, read-out: Dopa Accumulation (% inhib. @ 10 mg/kg, sc)
# Experimental: The effect of the compounds of the invention on the synthesis of dopamine was established by the method of Walters and Roth, Naunyn-Schmiedeberg's Arch. Pharmacol. 296:5-14, 1976, in which rats (male, Sprague-Dawley, Charles River, 200-350 g) were administered vehicle or test drug ten minutes prior to the administration of gamma butyrolactone (GBL; 750 mg/kg, ip to inhibit dopaminergic impulse flow) and 20 minutes prior to NSD-1015 (100 mg/kg, ip to prevent the conversion of dopa to dopamine). Thirty minutes after NSD-1015 all rats were decapitated and the nucleus accumbens and the striatum were removed for analysis. Following perchloric acid extraction of the tissue, the extracts were placed over alumina columns to collect and concentrate dopa and other catechols. This eluate was then subjected to HPLC analysis using electrochemical detection to quantify the levels of dopa present. Dopamine autoreceptor agonists, under the conditions used above, inhibit dopa accumulation.
# mouse locomotor activity = experiment: Reduction of mouse locomotor activity (hypolocomotion); type: in vivo, mouse (male, CF-1); details: 20 min, ip, horizontal activity counts 10 to 20 minutes after dosing
# Experimental: The antipsychotic activity of the compounds of the invention was further established by a determination of the compounds' ability to reduce mouse locomotor activity according to the method of Martin and Bendensky, J. Pharmacol. Exp. Therap. 229: 706-711, 1984, in which mice (male, CF-1, Charles River, 20-30 g) were injected with vehicle or various doses of each drug and locomotor activity was measured for 30 minutes using automated infrared activity monitors (Omnitech-8×8 inch open field) located in a darkened room. ED50 's were calculated from the horizontal activity counts collected from 10 to 20 minutes after dosing using a nonlinear regression analysis with inverse prediction.
# T1 sequence (P61169 whole entry): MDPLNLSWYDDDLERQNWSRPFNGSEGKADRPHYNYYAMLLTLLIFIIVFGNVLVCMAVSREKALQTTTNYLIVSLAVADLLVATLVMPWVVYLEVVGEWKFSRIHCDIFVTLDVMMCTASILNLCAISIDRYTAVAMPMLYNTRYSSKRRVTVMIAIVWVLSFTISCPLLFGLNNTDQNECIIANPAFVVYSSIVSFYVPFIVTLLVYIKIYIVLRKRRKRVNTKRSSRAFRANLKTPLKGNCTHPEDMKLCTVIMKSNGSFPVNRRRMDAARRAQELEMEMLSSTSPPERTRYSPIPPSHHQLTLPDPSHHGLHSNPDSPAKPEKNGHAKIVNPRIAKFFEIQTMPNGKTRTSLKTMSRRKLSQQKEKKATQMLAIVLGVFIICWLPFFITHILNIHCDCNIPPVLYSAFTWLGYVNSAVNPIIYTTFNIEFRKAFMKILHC
inhibition at 0.1 µM (dopamine D2 receptor),SMILES,other results
73%,"O=c1ccoc2cc(OCCCNC[C@H]3COc4cc5c(cc4O3)OCO5)ccc12 [Example 2, (S)-7-[3-[[(6,7-Dihydro-1,3-dioxolo[4,5-g][1,4]benzodioxin-6-yl)methyl]amino]propoxy]chromen-4-one]",inhibition at 10 mg/kg (dopa accumulation): 60.3%; ED50 (mouse locomotor activity): 2.74 mg/kg
39%,"O=c1ccoc2ccc(OCCCNCC3COc4cc5c(cc4O3)OCO5)cc12 (stereo not drawn) [Example 5, 6-[3-[[(6,7-Dihydro-1,3-dioxolo[4,5-g][1,4]benzodioxin-6-yl)methyl]amino]propoxy]-chromen-4-one]",–
23%,"c1cc2c(cc1OCCCNCC1COc3cc4c(cc3O1)OCO4)CCCO2 (stereo not drawn) [Example 6, N-[3-(Chroman-6-yloxy)-propyl]-6,7-dihydro-1,3-dioxolo[4,5-g][1,4]benzodioxin-6-methanamine]",–
24%,"c1cc2c(cc1OCCCNCC1COc3cc4c(cc3O1)OCO4)OCCC2 (stereo not drawn) [Example 7, N-[3-(Chroman-7-yloxy)-propyl]-6,7-dihydro-1,3-dioxolo[4,5-g][1,4]benzodioxin-6-methanamine]",–
100%,"O=c1ccoc2cc(OCCCNCC3COc4ccc(O)cc4O3)ccc12 (stereo not drawn) [Example 9, 7-[3-[(7-Hydroxy-2,3-dihydro-benzo[1,4]dioxin-2-ylmethyl)amino]propoxy]chromen-4-one]",–

# Further lines, the compound ahead of its results:
SMILES,inhibition at 0.1 µM (dopamine D2 receptor),other results
"O=C1CC2(CCCC2)CC(=O)N1CCCCNCC1COc2ccccc2O1 (single isomer, unassigned; (-)) [(-)-MDL 72832, 8-[4-(1,4-benzodioxan-2-ylmethylamino)butyl]-8-azaspiro[4.5]decane-7,9-dione]",–,binds times as much as the dextrorotary isomer at the 5-HT1A receptor site (5-HT1A receptor): 32 times
"O=c1ccoc2cc(OCCCNCC3COc4cc5c(cc4O3)OCO5)ccc12 (stereo not drawn) [Example 1, 7-[3-[[(6,7-Dihydro-1,3-dioxolo[4,5-g][1,4]benzodioxin-6-yl)methyl]amino]propoxy]chromen-4-one]",65%,–
"O=C1CCOc2cc(OCCCNCC3COc4cc5c(cc4O3)OCO5)ccc21 (stereo not drawn) [Example 4, 7-[3-[[(6,7-Dihydro-1,3-dioxolo[4,5-g][1,4]benzodioxin-6-yl)methyl]amino]propoxy]-chroman-4-one]",24%,–
"COc1ccc2c(c1)OC(CNCCCOc1ccc3c(=O)ccoc3c1)CO2 (stereo not drawn) [Example 8, 7-[3-[(7-Methoxy-2,3-dihydro-benzo[1,4]dioxin-2-ylmethyl)amino]propoxy]chromen-4-one]",49%,–
"O=C1COc2cc(OCCCNCC3COc4cc5c(cc4O3)OCO5)ccc21 (stereo not drawn) [Example 10, 6-[3-[(6,7-Dihydro-1,3-dioxolo[4,5-g][1,4]benzodioxin-6-ylmethyl)amino]propoxy)-benzofuran-3-one]",43%,–
